Laboratory results taken from PMC7479175, “Selection of Potent Inhibitors of Soluble Epoxide Hydrolase for Usage in Veterinary Medicine” (Frontiers in Veterinary Science, 2020).

How the values were obtained:
Format in all cases: biochemical
Cat sEH [1] = target: T1, Cat sEH (Felis catus, UniProt A0ABI7ZL20); assay: Primary screen (end point) of the sEH inhibitor library, PHOME substrate; conditions: read-out: Cat sEH Inhibition (%) P.
Description: (§1) Primary screening of the library was performed with an inhibitor concentration of 100 nM using PHOME as substrate ([22]). […] The plates were then mixed and incubated at 30°C for 5 min. Across each plate, 30 μL of the working substrate solution (270 μL of 5 mM PHOME solution in DMSO diluted with 3,680 μL of buffer) were added quickly to yield [S]final: 50 μM. Each plate was further incubated at room temperature (horse sEH: 60 min; cat sEH: 45 min; dog sEH: 30 min).

Dog sEH [2] = target: T2, Dog sEH (Canis lupus familiaris, UniProt A0A8I3NJL8); assay: as above; conditions: [I] = 100 nM, primary end-point screening; read-out: Dog sEH Inhibition (%) P.
T2 sequence (A0A8I3NJL8 1-556): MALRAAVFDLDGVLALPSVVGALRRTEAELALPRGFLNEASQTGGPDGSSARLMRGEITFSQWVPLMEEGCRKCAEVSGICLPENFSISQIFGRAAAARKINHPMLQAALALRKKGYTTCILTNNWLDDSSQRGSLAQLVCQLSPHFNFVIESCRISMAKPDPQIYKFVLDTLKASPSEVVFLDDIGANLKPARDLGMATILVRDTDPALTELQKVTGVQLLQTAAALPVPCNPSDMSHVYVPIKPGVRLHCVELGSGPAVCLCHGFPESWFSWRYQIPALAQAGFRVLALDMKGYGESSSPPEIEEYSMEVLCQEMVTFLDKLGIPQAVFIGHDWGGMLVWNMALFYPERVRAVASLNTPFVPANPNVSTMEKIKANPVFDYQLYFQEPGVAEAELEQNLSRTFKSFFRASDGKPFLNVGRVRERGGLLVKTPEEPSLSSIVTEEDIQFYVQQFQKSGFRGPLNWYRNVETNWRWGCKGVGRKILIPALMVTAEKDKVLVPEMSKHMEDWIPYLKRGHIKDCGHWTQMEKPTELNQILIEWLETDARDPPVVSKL
Description: as §1

Cat sEH [3] = target: T1, Cat sEH; assay: Secondary screen (kinetic mode), PHOME substrate; conditions: read-out: Cat sEH Inhibition (%) S.
Cat sEH [4] = target: T1, Cat sEH; assay: sEH inhibition potency (IC50), fluorescent assay with CMNPC, partially purified enzyme; conditions: CMNPC ([S]final = 5 μM) as substrate; average ± standard deviation (n = 3)
Dog sEH [5] = target: T2, Dog sEH; assay: as above; conditions: CMNPC ([S]final = 5 μM) as substrate; average ± standard deviation (n = 3)
Description: The sEH activity from the cat, dog and horse liver was further purified to eliminate contaminating esterase activity that could interfere with the screening fluorescent assay ([16]). The cytosolic fraction was loaded on a Q-Sepharose column (100 mL) equilibrated with sodium phosphate buffer (20 mM pH 7.4). After washing of the bound proteins, the sEH activity was eluted with a step gradient of NaCl (0–1 M). The fractions containing the sEH activity were pooled and concentrated using a Centriprep-30. The concentrates were aliquoted and flash frozen, then kept frozen at −80°C until usage. […] Protein concentration was quantified using the Pierce BCA assay (Pierce, Rockford, IL), using Fraction V bovine serum albumin (BSA) as the calibrating standard.
The IC50 values reported herein were determined using either a fluorescent based assay (CMNPC as substrate) for purified enzyme preparations or a radioactive based assay ([^3H]t-DPPO as substrate) for crude enzyme preparations ([20]). The fluorescent assay was used with the purified proteins. […] The substrate (CMNPC) was then added ([S]final = 5 μM). […] The radioactive […] assay was used with the liver crude extracts. […]

[6] = target: sEH activity from liver cytosol of Cow (Bos taurus, UniProt Q17QK4); assay: sEH inhibition potency (IC50), radioactive assay with [3H]t-DPPO, liver cytosol; conditions: [3H]t-DPPO ([S]final = 5 μM) as substrate
Chain of sEH activity from liver cytosol of Cow (Q17QK4 entry or part of it): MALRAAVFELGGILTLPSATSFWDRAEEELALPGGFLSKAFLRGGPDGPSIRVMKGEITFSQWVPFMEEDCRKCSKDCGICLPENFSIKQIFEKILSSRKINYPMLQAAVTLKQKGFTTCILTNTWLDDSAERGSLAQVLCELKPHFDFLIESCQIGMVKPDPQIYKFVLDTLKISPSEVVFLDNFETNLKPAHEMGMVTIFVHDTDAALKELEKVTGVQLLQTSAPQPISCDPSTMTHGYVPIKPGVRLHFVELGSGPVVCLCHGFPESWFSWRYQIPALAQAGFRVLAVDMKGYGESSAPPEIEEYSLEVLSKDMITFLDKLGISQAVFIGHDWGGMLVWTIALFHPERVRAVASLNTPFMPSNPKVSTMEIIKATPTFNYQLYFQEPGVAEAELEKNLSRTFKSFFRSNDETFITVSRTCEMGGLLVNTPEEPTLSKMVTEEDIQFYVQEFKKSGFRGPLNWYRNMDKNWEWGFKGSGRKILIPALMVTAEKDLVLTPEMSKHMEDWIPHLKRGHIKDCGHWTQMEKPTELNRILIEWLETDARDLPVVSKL

[7] = target: T3, sEH activity from liver cytosol of Mouse (Mus musculus, UniProt P34914); assay: as above; conditions: [3H]t-DPPO ([S]final = 5 μM) as substrate
T3 construct: The radioactive fluorescent assay was used with the liver crude extracts; from tissue; host or cells: mouse liver cytosol (100,000 g supernatant)
T3 sequence (P34914 1-554): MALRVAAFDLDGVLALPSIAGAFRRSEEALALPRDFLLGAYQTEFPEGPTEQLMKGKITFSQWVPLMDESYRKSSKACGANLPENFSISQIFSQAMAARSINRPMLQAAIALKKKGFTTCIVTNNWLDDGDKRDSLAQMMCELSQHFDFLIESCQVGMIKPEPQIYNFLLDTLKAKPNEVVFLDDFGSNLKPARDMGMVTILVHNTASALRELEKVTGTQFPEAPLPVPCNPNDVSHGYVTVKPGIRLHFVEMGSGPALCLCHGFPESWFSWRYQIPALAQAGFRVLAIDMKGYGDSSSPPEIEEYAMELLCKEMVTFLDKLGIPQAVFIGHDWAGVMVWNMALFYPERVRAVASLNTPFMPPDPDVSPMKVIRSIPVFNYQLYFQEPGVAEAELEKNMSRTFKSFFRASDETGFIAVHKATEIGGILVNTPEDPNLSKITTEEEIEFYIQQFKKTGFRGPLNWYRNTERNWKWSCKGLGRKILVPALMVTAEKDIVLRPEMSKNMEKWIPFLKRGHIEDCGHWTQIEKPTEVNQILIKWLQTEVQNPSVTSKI

T1 sequence (A0ABI7ZL20 entry or part of it): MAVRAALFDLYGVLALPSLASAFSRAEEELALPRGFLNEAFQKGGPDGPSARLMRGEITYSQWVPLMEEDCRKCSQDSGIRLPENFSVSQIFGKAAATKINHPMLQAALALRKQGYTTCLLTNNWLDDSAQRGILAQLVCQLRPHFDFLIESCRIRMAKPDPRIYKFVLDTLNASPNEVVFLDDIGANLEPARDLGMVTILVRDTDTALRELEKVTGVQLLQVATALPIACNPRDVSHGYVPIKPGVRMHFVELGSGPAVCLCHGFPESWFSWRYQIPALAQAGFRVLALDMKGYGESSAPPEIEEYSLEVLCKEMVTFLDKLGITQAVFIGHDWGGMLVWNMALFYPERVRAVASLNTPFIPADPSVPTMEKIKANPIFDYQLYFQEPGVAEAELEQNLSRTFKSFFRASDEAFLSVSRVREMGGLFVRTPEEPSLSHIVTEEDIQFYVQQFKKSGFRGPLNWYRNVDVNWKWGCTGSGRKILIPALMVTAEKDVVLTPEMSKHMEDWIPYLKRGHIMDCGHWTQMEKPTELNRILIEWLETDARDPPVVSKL

## N#CNC(=O)CCCCCCCCCCCNC(=O)NC12CC3CC(CC(C3)C1)C2 [1,845]
Cat sEH [1]
  inhibition at 0.1 µM: 101%
Dog sEH [2]
  inhibition at 0.1 µM: 95%
Cat sEH [3]
  inhibition at 0.1 µM: 104%
Cat sEH [4]
  IC50: 0.4 ± 0.01 nM
Dog sEH [5]
  IC50: 0.6 ± 0.04 nM
[6]
  IC50: 11 nM
[7]
  IC50: 17 nM

## O=C(NCCCCOc1ccc(F)cc1)NC12CC3CC(CC(C3)C1)C2 [1,707]
Cat sEH [1]
  inhibition at 0.1 µM: 94%
Dog sEH [2]
  inhibition at 0.1 µM: < 90%
Cat sEH [3]
  inhibition at 0.1 µM: 99%
Cat sEH [4]
  IC50: 0.5 ± 0.02 nM
Dog sEH [5]
  IC50: 0.9 ± 0.1 nM
[6]
  IC50: 7 nM
[7]
  IC50: 10 nM
